The Km is the concentration of substrate that gives half-maximal velocity. By kcat is commonly meant the maximal rate divided by the concentration of active sites. In general, kcat/Km refers to the turnover number divided by the Michaelis constant.

The results in this text go back to publication PMC8954004, “Biochemical Basis of Xylooligosaccharide Utilisation by Gut Bacteria” (International Journal of Molecular Sciences, 2022).

For one data set, the target named is T1, Bp-XylX-2 (Blautia producta, UniProt A0ABX6JGM7).
T1 construct: gene GXM18_22300; recombinant E. coli Rosetta (DE3), pET28a, His-tag, any signal peptide excluded; ~75 kDa; catalytic Asp386 and Glu409; strain proteome UP000464715
Description: inhibition of pNP-Xyl hydrolysis, absorbance […] nm. The conditions noted are these: 2 mM pNP-Xyl, 50 mM sodium phosphate pH 5.7, 45 °C, 5 min; 200 mM xylose. The class given is biochemical.

The target in another data set is T2, Bp-XylX-1 (Blautia producta, UniProt A0ABX6JHR7).
T2 construct: gene GXM18_27615; recombinant E. coli Rosetta (DE3), pET28a, His-tag, any signal peptide excluded; ~75 kDa; catalytic Asp371 and Glu408; strain proteome UP000464715
Description: inhibition of pNP-Xyl hydrolysis, absorbance […] nm. Type of data set: biochemical. The settings on record: 2 mM pNP-Xyl, 50 mM sodium phosphate pH 5.7, 45 °C, 5 min; 200 mM xylose.

For another data set, the target named is T3, Lr-XylC (Limosilactobacillus reuteri, UniProt A0A0S4NRU4).
T3 construct: recombinant E. coli Rosetta (DE3), pET28a, His-tag, any signal peptide excluded; ~75 kDa; catalytic Asp382 and Glu415
T3 sequence (A0A0S4NRU4 1-679): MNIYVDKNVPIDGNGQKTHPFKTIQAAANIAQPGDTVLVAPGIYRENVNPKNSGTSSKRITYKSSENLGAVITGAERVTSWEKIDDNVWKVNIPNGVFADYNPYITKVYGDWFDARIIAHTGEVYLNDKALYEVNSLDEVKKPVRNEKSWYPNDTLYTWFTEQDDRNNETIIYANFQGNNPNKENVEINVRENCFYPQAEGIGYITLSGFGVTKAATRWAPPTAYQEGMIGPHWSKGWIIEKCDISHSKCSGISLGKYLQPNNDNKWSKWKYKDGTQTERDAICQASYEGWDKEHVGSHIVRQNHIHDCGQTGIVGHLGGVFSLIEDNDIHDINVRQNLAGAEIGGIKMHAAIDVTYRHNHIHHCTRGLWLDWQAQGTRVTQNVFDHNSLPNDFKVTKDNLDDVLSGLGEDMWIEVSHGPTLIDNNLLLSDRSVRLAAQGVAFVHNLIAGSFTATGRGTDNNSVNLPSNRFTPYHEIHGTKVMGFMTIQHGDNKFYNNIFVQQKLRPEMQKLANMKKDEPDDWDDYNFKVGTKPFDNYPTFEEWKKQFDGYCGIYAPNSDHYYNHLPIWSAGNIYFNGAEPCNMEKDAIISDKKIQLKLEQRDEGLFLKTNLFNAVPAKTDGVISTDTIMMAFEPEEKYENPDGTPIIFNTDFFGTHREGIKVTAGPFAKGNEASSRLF
As to the kind of experiment: inhibition of pNP-Xyl hydrolysis, absorbance […] nm. Type of data set: biochemical. The conditions noted are these: 2 mM pNP-Xyl, 50 mM sodium phosphate pH 5.7, 45 °C, 5 min; 200 mM xylose.

Substrate in the data set “purified protein”: O=[N+]([O-])c1ccc(O[C@@H]2OC[C@@H](O)[C@H](O)[C@H]2O)cc1
As to the kind of experiment: purified protein. Type of data set: biochemical, Limosilactobacillus reuteri. The conditions noted are these: sodium phosphate pH 5.7 (50 mM in Table 1, 10 mM in methods), 45 °C, 10 min, 1.3 µM enzyme.

T2 sequence (A0ABX6JHR7 entry or part of it): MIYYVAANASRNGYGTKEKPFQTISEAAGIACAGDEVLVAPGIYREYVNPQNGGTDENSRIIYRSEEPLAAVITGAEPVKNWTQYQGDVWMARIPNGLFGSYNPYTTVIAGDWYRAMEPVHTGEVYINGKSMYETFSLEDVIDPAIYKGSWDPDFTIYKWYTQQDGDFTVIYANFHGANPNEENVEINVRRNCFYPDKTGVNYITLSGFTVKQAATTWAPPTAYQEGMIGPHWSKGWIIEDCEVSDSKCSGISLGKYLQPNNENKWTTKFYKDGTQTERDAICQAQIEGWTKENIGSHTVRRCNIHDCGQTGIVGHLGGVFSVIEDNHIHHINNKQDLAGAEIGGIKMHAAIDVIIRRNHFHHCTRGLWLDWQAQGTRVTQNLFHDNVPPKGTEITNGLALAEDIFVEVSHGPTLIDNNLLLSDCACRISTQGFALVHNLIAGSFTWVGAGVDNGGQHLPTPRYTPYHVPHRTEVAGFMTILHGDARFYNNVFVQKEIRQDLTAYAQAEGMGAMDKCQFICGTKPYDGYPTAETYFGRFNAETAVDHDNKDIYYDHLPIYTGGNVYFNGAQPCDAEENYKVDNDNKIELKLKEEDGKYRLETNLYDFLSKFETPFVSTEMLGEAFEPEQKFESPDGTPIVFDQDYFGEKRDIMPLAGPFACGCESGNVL
T1 sequence (A0ABX6JGM7 entry or part of it): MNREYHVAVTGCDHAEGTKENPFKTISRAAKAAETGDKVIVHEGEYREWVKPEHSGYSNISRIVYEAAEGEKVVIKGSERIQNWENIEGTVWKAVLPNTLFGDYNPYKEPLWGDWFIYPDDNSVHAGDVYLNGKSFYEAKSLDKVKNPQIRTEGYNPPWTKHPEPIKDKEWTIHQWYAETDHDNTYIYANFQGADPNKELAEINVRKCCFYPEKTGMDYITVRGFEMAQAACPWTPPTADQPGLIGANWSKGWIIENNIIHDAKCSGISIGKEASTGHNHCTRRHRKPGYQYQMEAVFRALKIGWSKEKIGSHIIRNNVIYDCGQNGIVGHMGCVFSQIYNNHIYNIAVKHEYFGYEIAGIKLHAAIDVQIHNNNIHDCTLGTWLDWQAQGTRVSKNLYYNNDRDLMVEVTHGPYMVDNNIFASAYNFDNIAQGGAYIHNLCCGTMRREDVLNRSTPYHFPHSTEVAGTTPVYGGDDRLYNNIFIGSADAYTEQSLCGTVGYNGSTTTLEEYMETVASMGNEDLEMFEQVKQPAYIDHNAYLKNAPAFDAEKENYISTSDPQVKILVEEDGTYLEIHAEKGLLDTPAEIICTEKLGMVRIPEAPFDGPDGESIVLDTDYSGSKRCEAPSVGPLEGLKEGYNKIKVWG

Regarding `OC1OC[C@@H](O)[C@H](O)[C@H]1O` (stereo partly drawn) [xylose], the “% reduction in activity at 200 mM” value at Bp-XylX-2 is ~ 26%; at Bp-XylX-1, ~ 42%; at Lr-XylC it was ~ 12%.

B1: Lr-XylC (Limosilactobacillus reuteri subsp. suis) (protein)
chain: MNIYVDKNVPIDGNGQKTHPFKTIQAAANIAQPGDTVLVAPGIYRENVNPKNSGTSSKRITYKSSENLGAVITGAERVTSWEKIDDNVWKVNIPNGVFADYNPYITKVYGDWFDARIIAHTGEVYLNDKALYEVNSLDEVKKPVRNEKSWYPNDTLYTWFTEQDDRNNETIIYANFQGNNPNKENVEINVRENCFYPQAEGIGYITLSGFGVTKAATRWAPPTAYQEGMIGPHWSKGWIIEKCDISHSKCSGISLGKYLQPNNDNKWSKWKYKDGTQTERDAICQASYEGWDKEHVGSHIVRQNHIHDCGQTGIVGHLGGVFSLIEDNDIHDINVRQNLAGAEIGGIKMHAAIDVTYRHNHIHHCTRGLWLDWQAQGTRVTQNVFDHNSLPNDFKVTKDNLDDVLSGLGEDMWIEVSHGPTLIDNNLLLSDRSVRLAAQGVAFVHNLIAGSFTATGRGTDNNSVNLPSNRFTPYHEIHGTKVMGFMTIQHGDNKFYNNIFVQQKLRPEMQKLANMKKDEPDDWDDYNFKVGTKPFDNYPTFEEWKKQFDGYCGIYAPNSDHYYNHLPIWSAGNIYFNGAEPCNMEKDAIISDKKIQLKLEQRDEGLFLKTNLFNAVPAKTDGVISTDTIMMAFEPEEKYENPDGTPIIFNTDFFGTHREGIKVTAGPFAKGNEASSRLF
notes: recombinant E. coli Rosetta (DE3), pET28a, His-tag, any signal peptide excluded; ~75 kDa; catalytic Asp382 and Glu415
Take B1: in the data set “purified protein”, the Km is 230 ± 20 µM, the kcat was determined as 11.4 ± 0.2 s⁻¹ and the kcat/Km came to 49000 M⁻¹ s⁻¹.
